Counter-ions that a name gives are not always drawn. Bounds are passed on as bounds.

Test [1] deals with T1, recombinant H1 receptor (human) (Homo sapiens, UniProt P35367).
T1 construct: expressed in transfected cells; host or cells: HEK-293 (membranes)
Description: H1 competition binding assay ([3H]-Pyrilamine, SPA). As for the experimental part: [^3H]-Pyrilamine binding experiments are carried out in SPA (scintillation proximity assay) 96-well format. Membranes used in this assay are prepared from HEK-293 cells stably expressing recombinant H1 receptor (human). The incubation is initiated by the addition of a mixture of WGA PVT SPA beads (1 mg/well, Perkin Elmer (MA, USA) RPNQ0001) and 3 μg membranes to assay buffer (67 mM Tris; pH 7.6) containing 3.5 nM [^3H]-Pyrilamine and varying concentrations of the test compound (10 point concentration response curves). Non-specific binding is determined in the presence of 10 μM Triprolidine. Samples are incubated for 4 hr. at room temperature (22° C.) and then read in a Microbeta Trilux.
Curves are evaluated using a 4-parameter logistic nonlinear equation to obtain the concentration of competitor causing 50% inhibition of radioligand binding (IC50). Equilibrium dissociation constants (Ki) are calculated according to the equation Ki=IC50/(1+L/Kd), where L equals the concentration of radioligand used in the experiment and Kd equals the equilibrium dissociation constant of the radioligand for the receptor, determined from standard saturation analysis or homologous competition experiments. Reported values for Ki, where n values are indicated, are shown as geometric mean±the standard error of the mean (SEM), with the number of replicate determinations indicated by n. […]

In test [2] the target is T2, 5-HT2B (Homo sapiens, UniProt P41595). Description: 5-HT2B binding. The text has this: (§1) Further, the compounds of the invention may be tested in binding assays and functional activity assays by well known methods for other physiologically important receptors such as, but not limited to, the hERO channel, other serotonin receptors (specifically 5-HT1B, 5-HT1D, receptors, lack of agonist activity at 5-HT2B receptors, 5-HT2C, 5-HT5, 5-HT6, and 5-HT7 receptors), dopaminergic receptors (specifically D1, D2, and D3), GABAA receptors, adrenergic receptors and monoamine transporters.

The target of test [3] is T2, 5-HT2B. Description: 5-HT2B antagonist functional activity. The class given is biochemical.
Source text: as §1

For a further test, the target named is Dopamine D2 (Homo sapiens, UniProt P14416). Description: Dopamine D2 binding.
Source text: as §1

A further test deals with Dopamine D3 (Homo sapiens, UniProt P35462). As to the kind of experiment: Dopamine D3 binding.
Source text: as §1

Another test addresses 5-HT7 (Homo sapiens, UniProt P34969). Description: 5-HT7 binding.
Source text: as §1

In a further test the target is Adrenergic alpha1A (Homo sapiens, UniProt P35348). As to the kind of experiment: Adrenergic alpha1A binding.
Source text: as §1

The next test has as its target Adrenergic alpha1B (Homo sapiens, UniProt P35368). As to the kind of experiment: Adrenergic alpha1B binding.
Source text: as §1

The next test concerns the target Adrenergic alpha2A (Homo sapiens, UniProt P08913). Description: Adrenergic alpha2A binding.
Source text: as §1

In a further test the target is Serotonin Transporter (Homo sapiens, UniProt P31645). As to the kind of experiment: Serotonin transporter binding.
Source text: as §1

For the next test, the target named is T3, 5-HT2A Receptor (Rattus norvegicus, UniProt P14842).
T3 construct: from tissue; host or cells: rat brain (frontal cortex against cerebellum), in vivo
As to the kind of experiment: 5-HT2A receptor occupancy (MDL 100907 tracer). Type of test: in vivo. The settings on record: oral gavage, RO 1 hr. after dosing. As for the experimental part: Briefly, male Sprague-Dawley rats (Harlan Sprague-Dawley, Indianapolis, Ind.) weighing approximately 230-280 grams are given ad lib access to food and water until the beginning of the 3-hr. experimental protocol. 1 mg/kg ketanserin (non-selective 5-HT2A antagonist) is used as a positive control to establish assay validity. Test compounds or control are administered by oral gavage in a vehicle comprised of 20% hydroxypropyl beta-cyclodextrin. MDL 100907 ((R)-(+)-α-(2,3-Dimethoxyphenyl)-1-[2-(4-fluorophenyl)ethyl]-4-piperidinemethanol), a selective 5-HT2A antagonist, is used as a tracer. […] It is at the time of tracer administration that RO is considered to be measured. […] The level of MDL 100907 tracer is measured in each cortical and cerebellar sample. RO is calculated using the well-established ratio method which employs a region of high receptor density representative of total binding (frontal cortex) normalized by an area without or with very low levels of receptor (cerebellum). […]
Cortex and cerebellar samples are weighed and placed in conical centrifuge tubes on ice. […] Standards are prepared by adding known quantities of analyte to brain tissue samples from non-treated rats and processing as described above. […]

T2 sequence (P41595 whole entry, species assumed): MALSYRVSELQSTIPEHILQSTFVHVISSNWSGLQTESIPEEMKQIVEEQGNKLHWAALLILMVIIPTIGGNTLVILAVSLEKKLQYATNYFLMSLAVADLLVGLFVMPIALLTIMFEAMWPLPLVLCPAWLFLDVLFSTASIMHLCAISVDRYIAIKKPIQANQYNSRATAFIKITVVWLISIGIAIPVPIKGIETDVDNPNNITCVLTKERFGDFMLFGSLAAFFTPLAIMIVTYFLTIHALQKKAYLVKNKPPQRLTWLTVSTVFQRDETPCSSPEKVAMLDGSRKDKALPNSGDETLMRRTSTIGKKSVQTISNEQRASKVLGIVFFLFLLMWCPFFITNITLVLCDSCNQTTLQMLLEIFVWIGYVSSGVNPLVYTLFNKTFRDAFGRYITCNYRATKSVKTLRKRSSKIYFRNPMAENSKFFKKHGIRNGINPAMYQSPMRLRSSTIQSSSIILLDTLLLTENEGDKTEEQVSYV
Sequence of Serotonin Transporter (P31645 whole entry): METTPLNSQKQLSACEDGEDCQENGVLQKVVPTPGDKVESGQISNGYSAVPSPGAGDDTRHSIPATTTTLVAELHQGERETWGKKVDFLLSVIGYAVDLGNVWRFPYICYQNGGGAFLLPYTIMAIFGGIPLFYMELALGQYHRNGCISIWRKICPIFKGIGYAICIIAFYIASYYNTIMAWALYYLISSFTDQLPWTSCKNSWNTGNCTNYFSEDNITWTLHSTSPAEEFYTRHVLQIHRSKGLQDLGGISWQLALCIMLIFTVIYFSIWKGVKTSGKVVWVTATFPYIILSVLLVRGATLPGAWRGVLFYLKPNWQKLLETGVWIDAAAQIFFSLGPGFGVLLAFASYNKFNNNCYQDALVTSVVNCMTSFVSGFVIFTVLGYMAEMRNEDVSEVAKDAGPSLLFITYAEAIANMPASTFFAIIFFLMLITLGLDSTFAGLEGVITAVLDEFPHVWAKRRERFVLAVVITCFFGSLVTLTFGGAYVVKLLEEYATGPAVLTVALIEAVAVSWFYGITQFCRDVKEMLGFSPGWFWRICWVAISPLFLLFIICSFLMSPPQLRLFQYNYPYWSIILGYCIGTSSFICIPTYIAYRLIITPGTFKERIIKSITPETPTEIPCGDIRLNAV
Sequence of Adrenergic alpha2A (P08913 whole entry): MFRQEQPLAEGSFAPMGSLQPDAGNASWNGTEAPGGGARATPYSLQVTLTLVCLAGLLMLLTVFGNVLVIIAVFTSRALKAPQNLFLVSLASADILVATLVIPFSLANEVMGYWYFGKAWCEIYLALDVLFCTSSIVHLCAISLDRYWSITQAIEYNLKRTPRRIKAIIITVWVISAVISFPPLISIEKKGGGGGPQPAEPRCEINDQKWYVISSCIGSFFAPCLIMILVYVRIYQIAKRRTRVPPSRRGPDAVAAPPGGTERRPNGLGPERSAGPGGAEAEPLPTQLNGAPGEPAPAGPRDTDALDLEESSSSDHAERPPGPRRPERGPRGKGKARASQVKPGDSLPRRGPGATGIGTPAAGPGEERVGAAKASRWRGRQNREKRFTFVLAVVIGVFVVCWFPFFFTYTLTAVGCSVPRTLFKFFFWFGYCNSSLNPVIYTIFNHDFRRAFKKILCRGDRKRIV
Sequence of Dopamine D2 (P14416 whole entry): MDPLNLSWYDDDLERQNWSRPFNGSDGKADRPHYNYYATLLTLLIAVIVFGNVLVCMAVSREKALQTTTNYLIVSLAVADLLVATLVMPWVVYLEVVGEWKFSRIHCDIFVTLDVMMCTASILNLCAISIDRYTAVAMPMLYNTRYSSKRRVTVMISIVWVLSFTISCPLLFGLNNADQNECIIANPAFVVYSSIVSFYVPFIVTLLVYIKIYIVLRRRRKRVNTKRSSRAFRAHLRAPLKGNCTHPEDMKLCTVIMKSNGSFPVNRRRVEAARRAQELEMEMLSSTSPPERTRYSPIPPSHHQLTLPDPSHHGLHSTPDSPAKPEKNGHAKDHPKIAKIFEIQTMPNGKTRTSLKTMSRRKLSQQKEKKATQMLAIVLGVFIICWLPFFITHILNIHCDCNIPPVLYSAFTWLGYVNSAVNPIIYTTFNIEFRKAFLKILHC
T3 sequence (P14842 whole entry): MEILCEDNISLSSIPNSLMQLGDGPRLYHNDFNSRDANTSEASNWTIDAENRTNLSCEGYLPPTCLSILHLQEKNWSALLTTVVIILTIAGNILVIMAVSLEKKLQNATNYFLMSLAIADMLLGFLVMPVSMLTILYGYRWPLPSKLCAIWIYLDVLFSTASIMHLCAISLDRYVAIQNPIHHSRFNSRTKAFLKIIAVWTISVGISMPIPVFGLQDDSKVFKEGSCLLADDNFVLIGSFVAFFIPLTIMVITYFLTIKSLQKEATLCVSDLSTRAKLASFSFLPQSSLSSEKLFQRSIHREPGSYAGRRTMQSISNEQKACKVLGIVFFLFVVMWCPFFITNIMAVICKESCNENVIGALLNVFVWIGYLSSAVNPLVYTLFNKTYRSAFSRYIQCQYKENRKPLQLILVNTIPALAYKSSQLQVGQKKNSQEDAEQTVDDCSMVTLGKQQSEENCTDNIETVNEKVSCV
Sequence of Adrenergic alpha1A (P35348 whole entry): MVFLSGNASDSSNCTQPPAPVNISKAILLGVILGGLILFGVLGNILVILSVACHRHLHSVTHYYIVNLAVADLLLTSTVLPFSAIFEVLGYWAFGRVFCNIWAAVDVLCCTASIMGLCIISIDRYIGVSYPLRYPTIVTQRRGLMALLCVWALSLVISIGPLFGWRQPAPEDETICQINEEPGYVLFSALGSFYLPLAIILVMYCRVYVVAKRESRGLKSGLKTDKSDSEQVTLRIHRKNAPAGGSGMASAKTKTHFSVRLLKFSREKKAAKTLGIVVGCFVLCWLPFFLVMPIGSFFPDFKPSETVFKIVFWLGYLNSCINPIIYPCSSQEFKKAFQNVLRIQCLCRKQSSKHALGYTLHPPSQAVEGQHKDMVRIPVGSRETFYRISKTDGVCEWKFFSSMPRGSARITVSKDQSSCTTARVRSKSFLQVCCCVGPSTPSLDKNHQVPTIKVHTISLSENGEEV
T1 sequence (P35367 whole entry): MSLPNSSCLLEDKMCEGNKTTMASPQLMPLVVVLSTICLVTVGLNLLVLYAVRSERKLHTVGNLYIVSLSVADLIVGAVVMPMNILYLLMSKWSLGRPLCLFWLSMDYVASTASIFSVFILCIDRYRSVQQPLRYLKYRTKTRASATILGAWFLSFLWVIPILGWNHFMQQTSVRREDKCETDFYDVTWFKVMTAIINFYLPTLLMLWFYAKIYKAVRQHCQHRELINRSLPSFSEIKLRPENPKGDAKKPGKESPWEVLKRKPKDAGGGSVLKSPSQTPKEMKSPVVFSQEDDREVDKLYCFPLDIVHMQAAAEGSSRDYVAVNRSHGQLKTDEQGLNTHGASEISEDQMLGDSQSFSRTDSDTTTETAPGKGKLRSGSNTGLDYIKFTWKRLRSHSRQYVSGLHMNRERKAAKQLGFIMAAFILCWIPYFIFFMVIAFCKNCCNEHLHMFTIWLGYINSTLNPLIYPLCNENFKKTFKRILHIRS
Sequence of Dopamine D3 (P35462 whole entry): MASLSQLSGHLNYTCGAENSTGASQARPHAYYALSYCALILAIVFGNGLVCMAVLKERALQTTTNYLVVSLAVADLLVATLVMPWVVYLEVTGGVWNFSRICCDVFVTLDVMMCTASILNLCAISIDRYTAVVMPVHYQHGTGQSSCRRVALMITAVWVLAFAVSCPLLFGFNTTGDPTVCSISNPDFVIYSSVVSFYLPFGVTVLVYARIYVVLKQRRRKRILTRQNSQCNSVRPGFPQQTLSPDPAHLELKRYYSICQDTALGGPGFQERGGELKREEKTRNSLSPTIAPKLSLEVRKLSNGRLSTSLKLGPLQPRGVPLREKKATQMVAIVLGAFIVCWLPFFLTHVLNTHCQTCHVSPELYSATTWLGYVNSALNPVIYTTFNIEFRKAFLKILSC
Sequence of Adrenergic alpha1B (P35368 whole entry): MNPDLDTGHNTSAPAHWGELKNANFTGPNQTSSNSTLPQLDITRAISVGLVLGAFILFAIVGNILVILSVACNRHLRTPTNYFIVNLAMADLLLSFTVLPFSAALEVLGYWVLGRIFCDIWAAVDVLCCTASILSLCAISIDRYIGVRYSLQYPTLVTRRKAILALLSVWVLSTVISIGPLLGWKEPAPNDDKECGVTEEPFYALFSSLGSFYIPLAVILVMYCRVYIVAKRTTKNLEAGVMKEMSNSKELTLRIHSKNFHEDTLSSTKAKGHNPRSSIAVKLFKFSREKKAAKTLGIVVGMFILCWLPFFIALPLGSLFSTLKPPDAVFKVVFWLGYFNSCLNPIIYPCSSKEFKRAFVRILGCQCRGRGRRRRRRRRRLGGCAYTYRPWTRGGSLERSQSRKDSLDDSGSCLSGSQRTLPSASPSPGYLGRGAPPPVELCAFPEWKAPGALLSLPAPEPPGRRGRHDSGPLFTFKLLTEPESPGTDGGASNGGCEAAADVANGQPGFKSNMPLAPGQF
Sequence of 5-HT7 (P34969 whole entry, species assumed): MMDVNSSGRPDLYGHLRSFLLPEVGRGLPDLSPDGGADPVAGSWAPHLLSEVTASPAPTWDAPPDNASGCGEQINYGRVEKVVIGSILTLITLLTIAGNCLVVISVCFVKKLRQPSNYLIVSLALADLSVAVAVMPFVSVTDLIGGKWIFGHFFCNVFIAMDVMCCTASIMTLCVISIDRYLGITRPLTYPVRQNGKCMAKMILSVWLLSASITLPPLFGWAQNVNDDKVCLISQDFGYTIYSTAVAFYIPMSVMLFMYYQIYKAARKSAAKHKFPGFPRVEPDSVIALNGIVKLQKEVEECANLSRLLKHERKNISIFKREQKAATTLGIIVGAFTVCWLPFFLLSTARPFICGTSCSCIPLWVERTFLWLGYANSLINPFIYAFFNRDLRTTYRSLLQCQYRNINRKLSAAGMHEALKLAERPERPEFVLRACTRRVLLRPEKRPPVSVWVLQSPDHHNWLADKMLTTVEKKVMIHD

`Cc1ccc2c(c1)Oc1sc(C)cc1C(N1CCN(CC(C)(C)C(=O)O)CC1)=N2` [Example 2, 3-[4-(2,8-Dimethylthieno[2,3-b][1,5]benzoxazepin-4-yl)piperazin-1-yl]-2,2-dimethyl-propanoic acid dihydrochloride]: the Ki in [1] was 0.131 µM; at 5-HT2B [2], 0.0958 µM; on Dopamine D2, 2.48 µM; on Dopamine D3 it was above 5.66 µM; on 5-HT7, above 2.06 µM; at Adrenergic alpha1A, above 10.5 µM. In addition, the Ki at Adrenergic alpha1B was above 16.2 µM; on Adrenergic alpha2A it was above 9.02 µM; at Serotonin Transporter, above 0.651 µM. This molecule had a Kb on 5-HT2B [3] of 0.045 µM. The molecule further displayed an ED50 at 5-HT2A Receptor of 0.09 mg/kg.

What is called Ki is the dissociation constant of the complex between target and ligand, obtained from inhibition or displacement. As usually defined, the Kb is the equilibrium dissociation constant of an antagonist, usually derived from a functional assay. Read a high Kb as a less potent antagonist. One may read the ED50 as the dose that gives a 50% effect, or the effect in half of the subjects.

Values taken from US9512140B2, “(Thieno[2,3-b][1,5]benzoxazepin-4-yl)piperazin-1-yl compounds as dual activity H1 inverse agonists/5-HT2A antagonists” (priority 2011, dated 2016).
